The assay is described as follows: Experiment of aldehyde-trapping ability in vitro. As to conditions: for percentage content of the complex product (HPLC, 254 nm): nonanal 1.0 eq, compound 1.0 eq, 20 to 23° C. The protocol:
Objective: xerophthalmia is caused by inflammations inside the eye, and these inflammations would produce some aldehydes in vivo. If these aldehydes are not eliminated in time, the symptoms of inflammations would be accelerated and worsen the xerophthalmia. In this experiment, by simulating the in vivo environment, a relatively preferred compound was selected according to the complexing ability of the drug and the aldehyde in vivo.
Process: sulfobutyl-B-cyclodextrin (310 mg) was dissolved in phosphate buffer (1.25 mL) to prepare a solution.
Nonanal (5.0 mg, 32 μmol, 1.0 eq) and glyceryl trioleate (300 mg) were added into a reaction flask at room temperature. After the above prepared solution was added thereto, linoleic acid (300 mg) was then added thereto, and finally a dimethyl sulfoxide (0.15 mL) solution containing the compound of the present disclosure (32 μmol, 1.0 eq) was added thereto. The reaction solution was reacted at 20 to 23° C.
After stirring and reacting for 10 minutes, 100 minutes, 200 minutes, and 300 minutes, respectively, the reaction solution was allowed to stand for 2 minutes, layered and then sampled for high performance liquid detection.
Sampling method: 25 μL of the upper emulsion layer and 50 μL of the lower aqueous phase were sampled with a pipette, and diluted with 1 mL of methanol.
Nonanal has weak ultraviolet absorption at a wavelength of 254 nm, and has little influence on the content of complexation product as a whole. Therefore, the percentage content of the complexed compound at 254 nm in high performance liquid phase was compared to observe the ability of the compound to trap and complex aldehyde.
The HPLC analysis method is shown in Table 1 below, which is XBRIGE 2.5 μm, 3.0*100 mm 5-95CD_XBEH_12 min_0.8.lcm

Each structure is given as a SMILES string.

As to `CC(C)(O)c1ncc(-c2nc(C(C)(C)O)c(N)s2)cc1N` [Compound 1], the “Area under the curve AUC” value (complex product content against time, 10 to 300 minutes) worked out at 1874 min. conversion rate. Under “linear fit of complex product content against time, 10 to 300 minutes”, this compound displayed a Slope of 0.0394. The “percentage content of the complex product (HPLC, 254 nm)” value reads like this: (reaction time 10 minutes) 1.095; (reaction time 100 minutes) 4.751; (reaction time 200 minutes) 8.764; (reaction time 300 minutes) 12.496.

The values above are taken from patent US12595259B2, “Aminopyridine compound” (ZHUHAI UNITED LABORATORIES CO., LTD., priority 2020, dated 2026).
